Reference: article PMC9696794, “Synthesis and Antimicrobial Activity of Short Analogues of the Marine Antimicrobial Peptide Turgencin A: Effects of SAR Optimizations, Cys-Cys Cyclization and Lipopeptide Modifications” (International Journal of Molecular Sciences, 2022)
Values after ≈ are worked out from the molar mass of the structure shown. Where two headings read alike, the source gives them in different places. Where a SMILES comes first, the peptide text is derived from it. Bridges are numbered along the chain shown (N, C = ends). The star is where a group is joined. Lauroyl = CCCCCCCCCCCC(=O)*; Octanoyl = CCCCCCCC(=O)*

Experiments:
E. coli (Ec, ATCC 25922) = assay: microbe, parasite or virus in culture; type: cell-based, Escherichia coli; conditions: for MIC: Escherichia coli, ATCC25922
Outline: (§1)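 Cultures grown in Mueller–Hinton broth were adjusted by OD600 to 2.5–3 × 10^4 CFU/mL and mixed with two-fold peptide dilutions from 256 to 1 µg/mL. Plates were incubated at 35 °C with OD595 monitored every hour for 24 h.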

E. coli K12 [1] = assay: Bacterial biosensor viability assay (lux operon luminescence); type: cell-based, Escherichia coli; conditions: E. coli K12, within 3 min
Description: (§2) Changes in light emission of sensor bacteria constitutively expressing the bacterial lux operon or a eukaryotic luciferase can be used as a proxy for viability and membrane integrity, respectively. Light production of the viability biosensors represents metabolic activity of the bacteria. For the membrane integrity assay on the other hand, light production depends on the influx of the externally added D-luciferin, which at neural pH will not readily pass the intact plasma membrane. An initial increase in light production therefore corresponds with damage to the plasma membrane and a concomitant influx of D-luciferin, while a subsequent drop in light emission indicates diminishing ATP reserves of the dying sensor bacteria.
(§3) Bacterial viability, based on light production by constitutively expressed bacterial luciferase, was measured in real time according to the method described by Hansen et al.. The assay was performed using B. subtilis 168 with chromosomally integrated luxABCDE operon and E. coli K12 carrying the plasmid pCGLS-11 containing the luxCDABE operon. […] No D-luciferin was added to the cell suspension. Each assay was performed at least three times independently, and the figures show a representative dataset.

[2] = test system: Gram-negative bacterial strains (E. coli and P. aeruginosa); assay: Antibacterial MIC assay, Gram-negative strains together (range or geometric mean); type: cell-based; conditions: Table S3; MIC >256 set to 256
Outline: as §1

B. subtilis 168 [3] = assay: Bacterial biosensor membrane integrity assay (luciferase, D-luciferin influx); type: cell-based, Bacillus subtilis; conditions: for time of membranolytic action (luminescence peak not detectable): B. subtilis 168, 25 µg/mL and 50 µg/mL
Description: as §2
(§4) A membrane integrity assay was performed using two bacterial biosensors, B. subtilis 168 (ATCC 23857) and E. coli K12 (ATCC MC1061). Both strains carry the pCSS962 plasmid that contains a eukaryotic luciferase gene (lucGR), which originate from the click beetle Pyrophorus plagiophthalamus. The assay was performed as described previously. […] D-luciferin potassium salt (Synchem Inc., Elk Grove Village, IL, USA) was added to the cell suspension at a final concentration of 1 mM. Two-fold dilutions (final assay concentration of 50–1.56 µg/mL) of peptides dissolved in Milli-Q water were prepared and added (10 µL per well) to black round-bottom 96-well microtiter plates (Nunc). Milli-Q water served as a negative control used for the normalization purpose and CHX, having known membranolytic activity, was used as a positive control. The plates were loaded into a Synergy H1 Hybrid Reader and the background luminescence was monitored before aliquots (90 µL) of the cell suspension with D-luciferin were added, one well at the time, by an automatic injector. Light emission was recorded every second for 3 min. Each study was performed at least three times independently, and the figures show a representative dataset.

[4] = test system: Gram-positive bacterial strains; conditions: Table S3; MIC >256 set to 256
Outline: as §1

[5] = test system: fungi (A. pullulans, C. albicans, Rhodotorula sp.); assay: Antifungal MIC assay, all fungi together (range or geometric mean); type: cell-based; conditions: Table S3; MIC >128 set to 128
Outline: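 Overnight cultures in potato dextrose broth with 2% glucose at 25–30 °C were diluted to approx. 4 × 10^5 spores/mL and mixed 1:1 with two-fold peptide dilutions plated at 256 to 1 µg/mL. After 48 h at room temperature, OD600 was read. MIC was the lowest concentration giving OD below 10% of the growth control, in triplicate.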

E. coli K12 [6] = assay: Bacterial biosensor membrane integrity assay (luciferase, D-luciferin influx); type: cell-based, Escherichia coli
Description: as §2, §4

B. subtilis 168 [7] = assay: Bacterial biosensor viability assay (lux operon luminescence); type: cell-based, Bacillus subtilis; conditions: B. subtilis 168, increasing concentrations, within 3 min
Description: as §2, §3

Row | Compound | MIC (E. coli (Ec, ATCC 25922); E. coli ATCC 25922, 24 h, read-out: Antimicrobial Activity (MIC) Gram − Ec) | MIC (E. coli (Ec, ATCC 25922); Table 2, laboratory strain, read-out: MIC E. coli ATCC 25922 (from Table 1)) | effect on viability (light emission) (E. coli K12 [1]) | GM of MIC G- [2] | time of membranolytic action (luminescence peak not detectable) (B. subtilis 168 [3]) | GM of MIC G+ [4] | GM of MIC Fungi [5] | effect in membrane integrity assay (E. coli K12 [6]; E. coli K12, 50 µg/mL) | effect on viability (light emission) (B. subtilis 168 [7]) | effect on membrane integrity (B. subtilis 168 [3]; B. subtilis 168, within 3 min) | effect in membrane integrity assay (E. coli K12 [6]; E. coli K12, 25 µg/mL) | rise in luminescence in membrane integrity assay (E. coli K12 [6]; E. coli K12, 50 µg/mL, delayed compared to chlorhexidine) | effect in membrane integrity assay (E. coli K12 [6]; E. coli K12, concentrations lower than 25 µg/mL) | MIC E. coli ATCC 25922 (from Table 1) (E. coli (Ec, ATCC 25922); ATCC 25922, 2 h) | Antimicrobial Activity (MIC) Gram − Ec (E. coli (Ec, ATCC 25922); ATCC 25922, 24 h)
1 | [H]/N=C(\N/C(=N/[H])NCCCCCCNC(=N)NC(=N)Nc1ccc(Cl)cc1)Nc1ccc(Cl)cc1 [Chlorhexidine, reference compound] | 1.6 µg/mL (≈ 3.17 µM) | 1.6 µg/mL (≈ 3.17 µM) | – | – | – | – | – | – | – | – | – | – | – | – | –
2 | CCCCCCCC(=O)N[C@H]1CSSC[C@@H](C(=O)N[C@@H](CCCCN)C(=O)N[C@@H](CC(C)C)C(N)=O)NC(=O)[C@H](CCCCN)NC(=O)[C@H](Cc2c[nH]c3ccccc23)NC(=O)CNC(=O)[C@H](Cc2c[nH]c3ccccc23)NC(=O)[C@H](Cc2c[nH]c3ccccc23)NC(=O)[C@H](CCCCN)NC(=O)[C@H](CCCCN)NC(=O)CNC1=O [Peptide C8-cTurg-2, C8- (CGKKWWGWKC)KL-NH2] (Octanoyl-CGKKWWGWKCKL-NH2; disulfide 1-10) | – | – | gradual, dose-dependent reduction in viability | 6 µg/mL | < 3 s | 3 µg/mL | 13 µg/mL | even further delayed rise in peak luminescence | dose-dependent effect on viability | – | – | – | – | – | –
3 | CCCCCCCCCCCC(=O)N[C@H]1CSSC[C@@H](C(=O)N[C@@H](CCCCN)C(=O)N[C@@H](CC(C)C)C(N)=O)NC(=O)[C@H](CCCCN)NC(=O)[C@H](Cc2c[nH]c3ccccc23)NC(=O)CNC(=O)CNC(=O)[C@@H]2CCCN2C(=O)[C@H](CCCCN)NC(=O)[C@H](CCCCN)NC(=O)CNC1=O [Peptide C12-cTurg-1, C12 -(CGKKPGGWKC)KL-NH2] (Lauroyl-CGKKPGGWKCKL-NH2; disulfide 1-10) | – | – | gradual, dose-dependent reduction in viability | 8 µg/mL | < 3 s | 3 µg/mL | 20 µg/mL | – | dose-dependent effect on viability | rapid and strong membrane disruptive effect | further delayed response | 3.5 fold | no effect | 2 to 4 µg/mL | 4 µg/mL
